What was measured:
Assay type in all cases: in vivo
[1] = system: wheat, winter (winter wheat, Triticum aestivum); assay: Test B preemergence, wheat, winter; settings: 19 to 21 days
Source text: (§1) Seeds of plant species selected from blackgrass (Alopecurus myosuroides), Italian ryegrass (Lolium multiflorum), wheat, winter (winter wheat, Triticum aestivum), corn (Zea mays), large (Lg) crabgrass (Digitaria sanguinalis), giant foxtail (Setaria faberi), johnsongrass (Sorghum halepense), ragweed (common ragweed, Ambrosia elatior), soybean (Glycine max), barnyardgrass (Echinochloa crus-galli), waterhemp (common waterhemp, Amaranthus rudis), palmer pigweed (Amaranthus palmeri), and surinam grass (Brachiaria decumbens), were planted into a silt loam soil and treated preemergence with test chemicals formulated in a non-phytotoxic solvent mixture which included a surfactant.
(§2) Treated plants and controls were maintained in a greenhouse for 19 to 21 days, after which time all species were compared to controls and visually evaluated. Plant response ratings, summarized in Table B, are based on a scale of 0 to 100 where 0 is no effect and 100 is complete control.

[2] = system: blackgrass (Alopecurus myosuroides); assay: Test B preemergence, blackgrass; settings: 19 to 21 days
Source text: as §1, §2

[3] = system: johnsongrass (Sorghum halepense); assay: Test B preemergence, johnsongrass; settings: 19 to 21 days
Source text: as §1, §2

[4] = system: ragweed (common ragweed, Ambrosia elatior); assay: Test C preemergence, ragweed; settings: 19 to 21 days
Source text: (§3) Seeds of plant species selected from corn (Zea mays), soybean (Glycine max), velvetleaf (Abutilon theophrasti), palmer pigweed (Amaranthus palmeri), waterhemp (common waterhemp, Amaranthus rudis), surinam grass (Brachiaria decumbens), large (Lg) crabgrass (Digitaria sanguinalis), fall panicum (Panicum dichotomiflorum), giant foxtail (Setaria faberi), ragweed (common ragweed, Ambrosia elatior), barnyardgrass (Echinochloa crus-galli), E. Black Nightshade (Solanum ptycanthum), and horseweed (Conyza canadensis), were planted into a silt loam soil and treated preemergence with test chemicals formulated in a non-phytotoxic solvent mixture which included a surfactant.
(§4) Treated plants and controls were maintained in a greenhouse for 19 to 21 days, after which time all species were compared to controls and visually evaluated. Plant response ratings, summarized in Table C, are based on a scale of 0 to 100 where 0 is no effect and 100 is complete control.

[5] = system: giant foxtail (Setaria faberi); assay: Test C preemergence, giant foxtail; settings: 19 to 21 days
Source text: as §3, §4

[6] = system: giant foxtail (Setaria faberi); assay: Test B preemergence, giant foxtail; settings: 19 to 21 days
Source text: as §1, §2

[7] = system: velvetleaf (Abutilon theophrasti); assay: Test C preemergence, velvetleaf; settings: 19 to 21 days
Source text: as §3, §4

[8] = system: barnyardgrass (Echinochloa crus-galli); assay: Test B preemergence, barnyardgrass; settings: 19 to 21 days
Source text: as §1, §2

maize [9] = assay: Test D post-emergence, maize seed treated with a herbicide safener
Description: (§5) A formulation containing 50 g/L of the test chemical was prepared by dissolving the active ingredient in a mixture of organic solvents and emulsifier, details of which are provided in the table. This formulation was then mixed with a small, variable amount of acetone to aid dissolution, before addition of a 0.2% v/v aqueous solution of an adjuvant, as the aqueous diluent, to form an aqueous spray solution which contains a predetermined concentration of the active ingredient.
(§6) This aqueous spray solution was then sprayed onto plants including maize and wheat that had been seed treated with a herbicide safener, after one day's cultivation (for pre-emergence) or after about 12 days' cultivation (for post-emergence). The plants were grown from seeds sown in standard soil, placed in a glasshouse under controlled conditions (at 24/18° C. or 20/16° C., day/night; 16 h light; 65% humidity). After spray application the plants were then grown in a glasshouse under the same conditions and watered twice daily. After 15 d for post-emergence and 20 DAA for pre-emergence the test was evaluated (100=total damage to plant; 0=no damage to plant).

maize [10] = assay: Test D pre-emergence, maize seed treated with a herbicide safener; settings: ZEAMX, preemergent, 20 DAA
Description: as §5, §6

[11] = system: barnyardgrass (Echinochloa crus-galli, ECHCG); assay: Test A pre-emergence, barnyardgrass; settings: after 13 d
How it was run: (§7)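 Seeds sown in pots of standard soil and sprayed one day later, pre-emergence, at 15.625, 62.5 or 250 g/ha in acetone/water (50:50) with 0.5% Tween 20. Grown in glasshouse at 24/16 °C, 14 h light, 65% humidity. Damage scored after 13 d (0 none, 100 total).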

corn (Zea mays, ZEAMX) = assay: Test A pre-emergence, corn; settings: after 13 d
How it was run: as §7

wheat = assay: Test D post-emergence, wheat seed treated with a herbicide safener; settings: "Cereals" Postemergent
Description: as §5, §6

SMILES: CN1C[C@H](c2cc(C(F)(F)F)n(C)n2)[C@@H](C(=O)Nc2cccc(F)c2F)C1=O [Compound 13, (3S,4R)—N-(2,3-difluorophenyl)-1-methyl-4-[1-methyl-5-(trifluoromethyl)-1H-pyrazol-3-yl]-2-oxo-3-pyrrolidinecarboxamide]
- Plant response rating (0 no effect, 100 complete control) Wheat ([1]; 16 g ai/ha Preemergence): 3
- Plant response rating (0 no effect, 100 complete control) Wheat ([1]; 31 g ai/ha Preemergence): 20
- Plant response rating (0 no effect, 100 complete control) Wheat ([1]; 62 g ai/ha Preemergence): 40
- Plant response rating (0 no effect, 100 complete control) Wheat ([1]; 125 g ai/ha Preemergence): 63
- Plant response rating (0 no effect, 100 complete control) Blackgrass ([2]; 16 g ai/ha Preemergence): 0
- Plant response rating (0 no effect, 100 complete control) Blackgrass ([2]; 31 g ai/ha Preemergence): 0
- Plant response rating (0 no effect, 100 complete control) Blackgrass ([2]; 62 g ai/ha Preemergence): 13
- Plant response rating (0 no effect, 100 complete control) Blackgrass ([2]; 125 g ai/ha Preemergence): 18
- Plant response rating (0 no effect, 100 complete control) Johnsongrass ([3]; 16 g ai/ha Preemergence): 0
- Plant response rating (0 no effect, 100 complete control) Johnsongrass ([3]; 31 g ai/ha Preemergence): 8
- Plant response rating (0 no effect, 100 complete control) Johnsongrass ([3]; 62 g ai/ha Preemergence): 15
- Plant response rating (0 no effect, 100 complete control) Johnsongrass ([3]; 125 g ai/ha Preemergence): 55
- Plant response rating (0 no effect, 100 complete control) Ragweed ([4]; 4 g ai/ha Preemergence): 0
- Plant response rating (0 no effect, 100 complete control) Ragweed ([4]; 8 g ai/ha Preemergence): 0
- Plant response rating (0 no effect, 100 complete control) Ragweed ([4]; 16 g ai/ha Preemergence): 0
- Plant response rating (0 no effect, 100 complete control) Ragweed ([4]; 31 g ai/ha Preemergence): 0
- Plant response rating (0 no effect, 100 complete control) Ragweed ([4]; 62 g ai/ha Preemergence): 0
- Plant response rating (0 no effect, 100 complete control) Ragweed ([4]; 125 g ai/ha Preemergence): 0
- Plant response rating (0 no effect, 100 complete control) Foxtail, Giant ([5]; 4 g ai/ha Preemergence): 0
- Plant response rating (0 no effect, 100 complete control) Foxtail, Giant ([5]; 8 g ai/ha Preemergence): 55
- Plant response rating (0 no effect, 100 complete control) Foxtail, Giant ([5]; 16 g ai/ha Preemergence): 73
- Plant response rating (0 no effect, 100 complete control) Foxtail, Giant ([5]; 31 g ai/ha Preemergence): 88
- Plant response rating (0 no effect, 100 complete control) Foxtail, Giant ([5]; 62 g ai/ha Preemergence): 95
- Plant response rating (0 no effect, 100 complete control) Foxtail, Giant ([5]; 125 g ai/ha Preemergence): 95
- Plant response rating (0 no effect, 100 complete control) Foxtail, Giant ([6]; 16 g ai/ha Preemergence): 90
- Plant response rating (0 no effect, 100 complete control) Foxtail, Giant ([6]; 31 g ai/ha Preemergence): 95
- Plant response rating (0 no effect, 100 complete control) Foxtail, Giant ([6]; 62 g ai/ha Preemergence): 98
- Plant response rating (0 no effect, 100 complete control) Foxtail, Giant ([6]; 125 g ai/ha Preemergence): 98
- Plant response rating (0 no effect, 100 complete control) Velvetleaf ([7]; 4 g ai/ha Preemergence): 0
- Plant response rating (0 no effect, 100 complete control) Velvetleaf ([7]; 8 g ai/ha Preemergence): 0
- Plant response rating (0 no effect, 100 complete control) Velvetleaf ([7]; 16 g ai/ha Preemergence): 0
- Plant response rating (0 no effect, 100 complete control) Velvetleaf ([7]; 31 g ai/ha Preemergence): 0
- Plant response rating (0 no effect, 100 complete control) Velvetleaf ([7]; 62 g ai/ha Preemergence): 0
- Plant response rating (0 no effect, 100 complete control) Velvetleaf ([7]; 125 g ai/ha Preemergence): 0
- Plant response rating (0 no effect, 100 complete control) Barnyardgrass ([8]; 16 g ai/ha Preemergence): 85
- Plant response rating (0 no effect, 100 complete control) Barnyardgrass ([8]; 31 g ai/ha Preemergence): 95
- Plant response rating (0 no effect, 100 complete control) Barnyardgrass ([8]; 62 g ai/ha Preemergence): 95
- Plant response rating (0 no effect, 100 complete control) Barnyardgrass ([8]; 125 g ai/ha Preemergence): 97

SMILES: CN1CC(c2cc(C(F)(F)F)n(C)n2)C(C(=O)Nc2cccc(F)n2)C1=O (racemic) [Compound 24]
- damage to plant (100=total damage to plant; 0=no damage to plant), ZEAMX (maize [9]; rate 130, evaluated after 15 d): 0
- damage to plant (100=total damage to plant; 0=no damage to plant), ZEAMX (maize [9]; rate 250, evaluated after 15 d): 0
- damage to plant (100=total damage to plant; 0=no damage to plant), ZEAMX (maize [9]; rate 500, evaluated after 15 d): 20
- damage to plant (100=total damage to plant; 0=no damage to plant), ZEAMX (maize [10]; rate 15): 0
- damage to plant (100=total damage to plant; 0=no damage to plant), ZEAMX (maize [10]; rate 30): 0
- damage to plant (100=total damage to plant; 0=no damage to plant), ZEAMX (maize [10]; rate 60): 0
- damage to plant (100=total damage to plant; 0=no damage to plant), ZEAMX (maize [10]; rate 130): 0
- damage to plant (100=total damage to plant; 0=no damage to plant), ZEAMX (maize [10]; rate 250): 0
- damage to plant (100=total damage to plant; 0=no damage to plant), ZEAMX (maize [10]; rate 500): 0
- damage to plant (100=total damage; 0=no damage) ECHCG ([11]; Pre-Emergence at 15.625 g/ha): 90
- damage to plant (100=total damage; 0=no damage) ECHCG ([11]; Pre-Emergence at 62.5 g/ha): 100
- damage to plant (100=total damage; 0=no damage) ECHCG ([11]; Pre-Emergence at 250 g/ha): 100
- damage to plant (100=total damage; 0=no damage) ZEAMX (corn (Zea mays, ZEAMX); Pre-Emergence at 15.625 g/ha): 0
- damage to plant (100=total damage; 0=no damage) ZEAMX (corn (Zea mays, ZEAMX); Pre-Emergence at 62.5 g/ha): 30
- damage to plant (100=total damage; 0=no damage) ZEAMX (corn (Zea mays, ZEAMX); Pre-Emergence at 250 g/ha): 80
- TRZAW damage rating (100=total damage to plant; 0=no damage to plant) (wheat; Rates 130, evaluated after 15 d): 0
- TRZAW damage rating (100=total damage to plant; 0=no damage to plant) (wheat; Rates 250, evaluated after 15 d): 0
- TRZAW damage rating (100=total damage to plant; 0=no damage to plant) (wheat; Rates 500, evaluated after 15 d): 0

Source: patent publication US20220281848A1, “PYRAZOLE-SUBSTITUTED PYRROLIDINONES AS HERBICIDES” (FMC Corporation, priority 2019, published 2022)
